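These data come from cells grown in 96-well plates and exposed to compound for 48 hours at five concentrations. TGI is the concentration that stops growth completely.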
Key:
Assay in all cases: DTP human tumour cell line panel, 48 h
[1] = system: COLO 205 colon
[2] = system: DMS 273 small cell lung
[3] = system: M14 melanoma
[4] = system: SF-268 CNS
[5] = system: SR leukemia
[6] = system: A549 NSCLC
[7] = system: DMS 114 small cell lung
[8] = system: UACC-257 melanoma
[9] = system: IGROV1 ovarian
[10] = system: OVCAR-5 ovarian
[11] = system: SW-620 colon
[12] = system: MALME-3M melanoma
[13] = system: HL-60(TB) leukemia
[14] = system: OVCAR-3 ovarian
[15] = system: NCI-H23 lung
[16] = system: EKVX NSCLC
[17] = system: HCT-15 colon
[18] = system: NCI-H522 lung
[19] = system: U251 CNS
[20] = system: M19-MEL melanoma
[21] = system: K-562 leukemia
[22] = system: UO-31 renal
[23] = system: LXFL 529 NSCLC
[24] = system: SNB-78 CNS
[25] = system: SN12C renal
[26] = system: RXF-631 renal
[27] = system: LOX IMVI melanoma
[28] = system: NCI-H460 lung
[29] = system: KM12 colon
[30] = system: XF 498 CNS
[31] = system: DLD-1 colon
[32] = system: RXF 393 renal
[33] = system: SK-OV-3 ovarian
[34] = system: HCT-116 colon
[35] = system: A498 renal
[36] = system: OVCAR-4 ovarian
[37] = system: CCRF-CEM leukemia
[38] = system: TK-10 renal
[39] = system: SNB-19 CNS
[40] = system: CAKI-1 renal
[41] = system: RPMI-8226 leukemia
[42] = system: KM20L2 colon
[43] = system: HOP-62 NSCLC
[44] = system: 786-0 renal
[45] = system: MOLT-4 leukemia
[46] = system: SK-MEL-5 melanoma
[47] = system: HT29 colon
[48] = system: NCI-H226 lung
[49] = system: OVCAR-8 ovarian
[50] = system: SF-295 CNS
[51] = system: SNB-75 CNS
[52] = system: UACC-62 melanoma
[53] = system: HOP-92 NSCLC
[54] = system: SF-539 CNS
[55] = system: SK-MEL-28 melanoma
[56] = system: SK-MEL-2 melanoma
[57] = system: HCC-2998 colon
[58] = system: HOP-18 NSCLC
[59] = system: ACHN renal

N#CC(=C=[N-])[n+]1ccc(Cl)cc1
TGI [1]: 32.9 µM | TGI [2]: 46.2 µM | TGI [3]: 31.1 µM | TGI [4]: 28.2 µM | TGI [5]: 62.2 µM | TGI [6]: > 100 µM | TGI [7]: 26.9 µM | TGI [8]: 29.5 µM | TGI [9]: 36.4 µM | TGI [10]: 32.7 µM | TGI [11]: 23.4 µM | TGI [12]: 30.6 µM | TGI [13]: 20.4 µM | TGI [14]: 31.5 µM | TGI [15]: 29.9 µM | TGI [16]: 33.8 µM | TGI [17]: 28.6 µM | TGI [18]: 9.55 µM | TGI [19]: 29.7 µM | TGI [20]: 27.8 µM | TGI [21]: 11.3 µM | TGI [22]: 59.9 µM | TGI [23]: 27.6 µM | TGI [24]: 42.4 µM | TGI [25]: 28.3 µM | TGI [26]: 52.5 µM | TGI [27]: 26.2 µM | TGI [28]: 55.5 µM | TGI [29]: 59.7 µM | TGI [30]: 33.4 µM | TGI [31]: 24.4 µM | TGI [32]: 31.5 µM | TGI [33]: > 100 µM | TGI [34]: 31.2 µM | TGI [35]: 86.6 µM | TGI [36]: 39.8 µM | TGI [37]: 56 µM | TGI [38]: 45.8 µM | TGI [39]: 94.5 µM | TGI [40]: 10.9 µM | TGI [41]: 60.7 µM | TGI [42]: 65.4 µM | TGI [43]: 83 µM | TGI [44]: 37.2 µM | TGI [45]: > 100 µM | TGI [46]: 29.7 µM | TGI [47]: 33.8 µM | TGI [48]: 66.7 µM | TGI [49]: 37.9 µM | TGI [50]: 38.9 µM | TGI [51]: 32.2 µM | TGI [52]: 29.9 µM | TGI [53]: 29.8 µM | TGI [54]: 43.2 µM

CCCCCCCCC(=O)NCCCNCCCNC(=O)CCCCCCCC
TGI [55]: 25.6 µM | TGI [1]: 9.57 µM | TGI [2]: 6.03 µM | TGI [56]: 9.05 µM | TGI [3]: 4.15 µM | TGI [4]: 26 µM | TGI [5]: 5.81 µM | TGI [6]: 29 µM | TGI [7]: 8.79 µM | TGI [8]: 19.9 µM | TGI [9]: 10.6 µM | TGI [10]: 28.5 µM | TGI [11]: 7.3 µM | TGI [12]: 26.6 µM | TGI [13]: 3.77 µM | TGI [14]: 30.5 µM | TGI [15]: 29.9 µM | TGI [16]: 30.1 µM | TGI [17]: 28.2 µM | TGI [57]: 6.67 µM | TGI [18]: 18.8 µM | TGI [19]: 8.92 µM | TGI [20]: 8.38 µM | TGI [21]: 4.55 µM | TGI [22]: 27.6 µM | TGI [23]: 7.79 µM | TGI [24]: 26 µM | TGI [25]: 16.3 µM | TGI [27]: 3.19 µM | TGI [28]: 6.57 µM | TGI [29]: 3.48 µM | TGI [30]: 9.22 µM | TGI [31]: 7.7 µM | TGI [32]: 21.7 µM | TGI [33]: 29.2 µM | TGI [34]: 9.54 µM | TGI [35]: 32.1 µM | TGI [36]: 29.9 µM | TGI [37]: 14.9 µM | TGI [38]: 30.2 µM | TGI [39]: 35.9 µM | TGI [40]: 27.7 µM | TGI [41]: 11 µM | TGI [42]: 6.31 µM | TGI [43]: 27.9 µM | TGI [44]: 3.52 µM | TGI [45]: 10.4 µM | TGI [58]: 26.6 µM | TGI [59]: 16.1 µM | TGI [46]: 14.1 µM | TGI [47]: 7.5 µM | TGI [48]: 35.1 µM | TGI [49]: 32.9 µM | TGI [50]: 14.2 µM | TGI [52]: 12.3 µM | TGI [53]: 14.1 µM | TGI [54]: 29.9 µM

— PubChem BioAssay (NCI)
